Source: patent US20080300276A1, “Heterocyclic Carboxylic Acide Amide Derivatives” (priority 2004, published 2008)
Read-outs that look alike come from different tables or passages of the source. Marks after values point to notes of the source that are not given here.

Columns and labels:
[1] = target: T1, recombinant NMDA receptors NR1/NR2A (Homo sapiens, UniProt Q05586+Q12879); assay: Inhibition of NMDA evoked cytosolic calcium elevations in transfected HEK293 cells; format: cell-based; conditions: for inhibition at 15 µM / inhibition at 10 µM: HEK293; for inhibition at 10 µM: read-out: NR1-3/NR2A % inhibition at 10 μM
T1 construct: expressed in transfected cells
T1 sequence (Q12879 23-1464, other chains not shown): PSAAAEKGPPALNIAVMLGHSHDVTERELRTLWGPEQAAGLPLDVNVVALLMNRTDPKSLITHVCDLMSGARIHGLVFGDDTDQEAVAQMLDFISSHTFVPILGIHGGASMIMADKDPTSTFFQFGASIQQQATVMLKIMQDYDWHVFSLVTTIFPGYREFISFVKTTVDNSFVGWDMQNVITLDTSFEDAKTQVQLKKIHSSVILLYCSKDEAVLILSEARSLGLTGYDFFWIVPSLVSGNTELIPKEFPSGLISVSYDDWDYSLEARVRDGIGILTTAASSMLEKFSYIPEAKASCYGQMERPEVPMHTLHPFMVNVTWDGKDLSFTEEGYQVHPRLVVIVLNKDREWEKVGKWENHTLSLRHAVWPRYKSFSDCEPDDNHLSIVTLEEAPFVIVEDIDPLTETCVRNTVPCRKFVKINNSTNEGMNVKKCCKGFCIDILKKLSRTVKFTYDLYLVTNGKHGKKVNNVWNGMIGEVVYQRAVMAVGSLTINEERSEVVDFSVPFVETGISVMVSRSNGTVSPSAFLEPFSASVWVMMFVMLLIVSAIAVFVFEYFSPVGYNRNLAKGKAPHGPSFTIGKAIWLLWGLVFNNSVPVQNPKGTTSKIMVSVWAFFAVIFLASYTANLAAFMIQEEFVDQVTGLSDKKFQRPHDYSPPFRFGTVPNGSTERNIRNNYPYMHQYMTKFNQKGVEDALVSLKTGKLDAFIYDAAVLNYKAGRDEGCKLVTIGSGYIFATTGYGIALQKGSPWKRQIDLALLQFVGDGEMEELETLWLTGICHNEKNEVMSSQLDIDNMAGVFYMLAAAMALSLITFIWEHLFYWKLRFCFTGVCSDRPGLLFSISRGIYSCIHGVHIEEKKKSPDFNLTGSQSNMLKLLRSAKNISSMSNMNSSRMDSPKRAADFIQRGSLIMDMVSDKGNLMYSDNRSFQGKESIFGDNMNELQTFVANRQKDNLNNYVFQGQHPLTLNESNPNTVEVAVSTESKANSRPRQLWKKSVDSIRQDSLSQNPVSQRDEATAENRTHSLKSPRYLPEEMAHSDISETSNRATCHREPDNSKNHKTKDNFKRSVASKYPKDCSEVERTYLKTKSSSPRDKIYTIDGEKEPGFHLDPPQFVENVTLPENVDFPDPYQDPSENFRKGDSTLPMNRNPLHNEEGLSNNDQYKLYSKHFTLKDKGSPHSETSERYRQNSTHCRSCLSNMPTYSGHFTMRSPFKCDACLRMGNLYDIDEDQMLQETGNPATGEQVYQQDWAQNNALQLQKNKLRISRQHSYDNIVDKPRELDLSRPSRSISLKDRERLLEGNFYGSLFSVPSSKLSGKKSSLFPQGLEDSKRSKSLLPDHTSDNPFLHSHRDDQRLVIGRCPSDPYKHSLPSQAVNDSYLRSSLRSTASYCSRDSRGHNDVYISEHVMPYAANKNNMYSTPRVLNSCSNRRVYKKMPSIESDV
Procedure: (1997); Neurochemistry International, 43, 19-29. (2003)]. […] Compounds were tested for their inhibitory action on NMDA evoked cytosolic calcium elevations in fluorescent calcium measurements. Studies were performed 48-72 h after addition of the inducing agent. Ketamine ([…] was also present during the induction in order to prevent cytotoxicity.
(§1) Dose-response curves and IC50-values were calculated using data derived from at least three independent experiments. Inhibitory potency of a compound at a single concentration point was expressed as percent inhibition of the NMDA response. Sigmoidal concentration-inhibition curves were fit to the data and IC50 values were determined as the concentration that produces half of the maximal inhibition caused by the compound.

[2] = target: T2, NR2B containing NMDA receptors (Rattus norvegicus, UniProt P35439+Q00960); assay: NMDA antagonist potency by fluorimetric intracellular calcium measurement in rat cortical cell culture; format: cell-based; conditions: fluorimetric method, 40 μM NMDA
T2 construct: primary neocortical cell cultures derived from 17 day old Charles River rat embryos; endogenous in cells; host or cells: primary rat embryonic (E17) neocortical cell culture, 3-7 days in vitro
T2 sequence (Q00960 27-1482, other chains not shown): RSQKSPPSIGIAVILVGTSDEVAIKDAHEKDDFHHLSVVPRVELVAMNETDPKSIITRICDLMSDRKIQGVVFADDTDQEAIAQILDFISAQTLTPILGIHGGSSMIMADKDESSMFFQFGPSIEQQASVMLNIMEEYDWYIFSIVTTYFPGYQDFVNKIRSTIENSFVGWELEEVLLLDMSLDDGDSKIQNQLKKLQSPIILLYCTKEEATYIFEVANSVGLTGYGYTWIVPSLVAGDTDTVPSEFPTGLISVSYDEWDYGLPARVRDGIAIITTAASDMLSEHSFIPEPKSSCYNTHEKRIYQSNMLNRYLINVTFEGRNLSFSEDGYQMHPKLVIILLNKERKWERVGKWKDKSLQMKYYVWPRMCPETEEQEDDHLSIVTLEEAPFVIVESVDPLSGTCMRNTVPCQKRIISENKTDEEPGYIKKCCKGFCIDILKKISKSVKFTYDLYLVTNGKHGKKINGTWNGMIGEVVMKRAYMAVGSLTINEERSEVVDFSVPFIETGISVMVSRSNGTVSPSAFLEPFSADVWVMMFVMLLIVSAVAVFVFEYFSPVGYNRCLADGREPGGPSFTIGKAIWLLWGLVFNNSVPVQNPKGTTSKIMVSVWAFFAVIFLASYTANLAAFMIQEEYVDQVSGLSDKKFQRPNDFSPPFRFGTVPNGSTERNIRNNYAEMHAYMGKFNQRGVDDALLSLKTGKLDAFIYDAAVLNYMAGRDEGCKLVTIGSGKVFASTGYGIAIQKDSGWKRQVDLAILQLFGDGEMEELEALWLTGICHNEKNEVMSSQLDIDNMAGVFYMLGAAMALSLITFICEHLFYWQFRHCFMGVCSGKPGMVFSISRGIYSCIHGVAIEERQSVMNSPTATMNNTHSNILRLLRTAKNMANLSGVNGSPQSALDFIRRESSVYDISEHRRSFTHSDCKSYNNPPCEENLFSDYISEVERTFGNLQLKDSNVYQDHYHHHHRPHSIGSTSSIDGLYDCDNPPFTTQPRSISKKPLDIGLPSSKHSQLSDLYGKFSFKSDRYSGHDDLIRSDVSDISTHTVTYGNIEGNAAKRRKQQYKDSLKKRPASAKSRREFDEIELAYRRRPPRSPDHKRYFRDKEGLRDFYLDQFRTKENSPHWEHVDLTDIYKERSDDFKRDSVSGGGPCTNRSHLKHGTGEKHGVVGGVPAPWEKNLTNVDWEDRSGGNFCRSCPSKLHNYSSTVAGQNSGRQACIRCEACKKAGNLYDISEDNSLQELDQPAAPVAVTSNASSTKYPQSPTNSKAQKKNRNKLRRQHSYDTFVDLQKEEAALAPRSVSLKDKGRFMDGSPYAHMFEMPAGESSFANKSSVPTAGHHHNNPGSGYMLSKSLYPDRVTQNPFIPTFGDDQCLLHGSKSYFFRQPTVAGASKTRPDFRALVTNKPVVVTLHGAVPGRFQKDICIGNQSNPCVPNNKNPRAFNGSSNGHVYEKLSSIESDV
Procedure: Assessment of NMDA Antagonist Potency In Vitro by Measurement of Intracellular Calcium Concentration with a Plate Reader Fluorimeter in Rat Cortical Cell Culture
The intracellular calcium measurements were carried out on primary neocortical cell cultures derived from 17 day old Charles River rat embryos (for the details on the preparation of neocortical cell culture see Johnson, M. I.; Bunge, R. P. (1992): Primary-cell cultures of peripheral and central neurons and glia. In: Protocols for Neural Cell Culture, eds: Fedoroff, S.; Richardson A., The Humana Press Inc., 51-75. After isolation the cells were plated onto standard 96-well microplates and the cultures were maintained in an atmosphere of 95% air-5% CO2 at 37° C. until the calcium measurements.
The cultures were used for the intracellular calcium measurements after 3-7 days in vitro. The cells at this in vitro age are believed to express predominantly NR2B containing NMDA receptors [Mol. Pharmacol. 45, 846-853. (1994)]. Before the measurement the cells were loaded with a fluorescent Ca^2+-sensitive dye, Fluo-4/AM (2 μM). To stop the loading the cells were washed twice with the solution used for the measurement (140 mm NaCl, 5 mM KCl, 2 mM CaCl2, 5 mM HEPES, 5 mM HEPES-Na, 20 mM glucose, 10 mM glycine, pH=7.4). After washing the test compounds were added to the cells in the above solution (90 μl/well). Intracellular calcium measurements were carried out with a plate reader fluorimeter: elevation of Fluo-4-fluorescence and so, intracellular calcium concentration was induced by application of 40 μM NMDA. Inhibitory potency of the test compounds was assessed by measuring the reduction in the calcium elevation in the presence of different concentrations of the compounds.
as §1

[3] = tested on: formalin response (licking/biting of the injected paw); assay: Mouse formalin test (second phase); format: in vivo; conditions: for ED50: Mus musculus, read-out: Formalin ED50
Procedure: Injection of diluted formalin into the hind paw of rats or mice is known to elicit a biphasic pain-related behaviour measured as time spent by licking/biting of the injured paw. The second phase is generally defined as pain related events detected in the 15-60 min. time interval ater formalin injection, with peak activity at around 30 min. It is known that NMDA receptors are involved in the second phase of response to formalin injection and this behavioural response is sensitive to blockade of NMDA receptors [Dickenson, A. and Besson J.-M. (Editors): Chapter 1, pp. 6-7: Animal models of Analgesia; and Chapter 8, pp. 180-183: Mechanism of Central Hypersensitivity: Excitatory Amino Acid Mechanisms and Their Control—In Pharmacology of Pain. Springer-Verlag (Berlin) 1997.] Therefore, we used the second phase of formalin test to characterize the efficacy of compounds in vivo. Inhibition of the second phase of response is considered to indicate an analgesic effect against chemically-induced persistent pain [Hunskaar, S., et al.: Formalin Test in Mice, a Useful Technique for Evaluating Mild Analgesics, Journal of Neuroscience Methods, 14 (1985) 69-76.]
Male albino Charles River NMRI mice (20-25 g) were used. Prior to the experiment any solid food was withdrawn for approx. 16 hours but the animals had free access to 20% glucose solution. The animals were allowed 1 hour acclimatization period in a glass cylinder (cc. 15 cm in diameter), then moved to an identical cylinder with a mirror placed behind to facilitate observation. The test substances were suspended in 5% tween-80 (10 ml per kg body weight) and administered orally by gavage 15 min before the formalin injection (20 μl of 1% formalin in 0.9% saline injected subcutaneously into the dorsal surface of the right hindpaw). The time spent by licking and biting of the injected paw was measured from 20 to 25 min. after the formalin injection.

[4] = tested on: locomotor activity; conditions: cited from earlier work; for effect on locomotor activity (in words): animal behavioural studies
[5] = tested on: spontaneous locomotor activity; assay: Spontaneous locomotor activity (LMA) in mice; format: in vivo, mouse; conditions: for locomotor stimulation relative to analgesic dose range (in words): mouse, in vivo
Procedure: Male NMRI mice weighing 20-22 g were used in the experiments.
Spontaneous locomotor activity was measured in a four-channel activity monitor. The apparatus consisted of acrylic cages. (43 cm×43 cm×32 cm) equipped with 2×16 pairs of photocells along all the bottom axis of the cage. An additional array of photocells (16 pairs) was placed along two opposite sides of the cage at the height of 10 cm in order to detect rearing responses.
Experimental groups consisted of 10 animals. Thirty minutes after the oral administration of the test compound or vehicle (tween-80), the animals were individually placed in one of four cages for one hour. Horizontal and vertical movements were determined as the number of beam interruptions for one hour at 15 min intervals.
Mean ±SE of horizontal activity data of each group was calculated then percentual changes compared to the control (vehicle-treated) group were determined. A compound was considered to cause locomotor stimulation when its effect exceeded 50% increase in beam interruptions. Consequently, doses defined as free of stimulatory action (UM) produced less than 50% increase.

[6] = read-out: Rat cortical cells (NR2B) appr. IC50
[7] = oral, 15 min before formalin, licking time 20 to 25 min
[8] = read-out: rat cortical cells IC50

COc1ccc(C=C2CCN(C(=O)c3nc4ccc(O)cc4[nH]3)CC2)cc1 [Example 5, (6-Hydroxy-1H-benzoimidazol-2-yl)-[4-(4-methoxy-benzylidene)-piperidine-1-yl]-methanone]
inhibition at 15 µM [1]: 52% | IC50 [2, 6]: < 50 nM

C[C@@H](CN1CCC(Cc2ccccc2)CC1)[C@@H](O)c1ccc(O)cc1 (relative stereo) [Ro 25-6981, R-(R*,S*)-1-(4-hydroxyphenyl)-2-methyl-3-[4-(phenylmethyl)piperidin-1-yl]-1-propanol]
NR1-3/NR2A % inhibition at 10 μM [1]: 1.0% | Formalin ED50 [3, 7]: >20* mg/kg | IC50 [2, 8]: 159 nM | effect on locomotor activity (in words) [4]: increase locomotor activity | effect on locomotor activity (in words) ([4]; listed as Ro 256981): no such effect was observed

O=C(CCN1CCC(Cc2ccc(F)cc2)CC1)c1ccc2[nH]c(=O)oc2c1 [EMD 95885]
NR1-3/NR2A % inhibition at 10 μM [1]: 0.1% | IC50 [2, 8]: 35 nM

O=C(c1nc2ccc(O)cc2[nH]1)N1CCC(=Cc2ccccc2)CC1 [Example 1, (4-Benzylidene-piperidine-1-yl)-(6-hydroxy-1H-benzoimidazol-2-yl)-methanone]
inhibition at 15 µM [1]: 33% | ED50 [3, 7]: 2.6 mg/kg | LMA % increase ([5]; dose 15 mg/kg oral): 27% | LMA % increase ([5]; dose 30 mg/kg oral): 63% | IC50 [2, 6]: < 50 nM

O=C(c1cc2ccc(O)cc2[nH]1)N1CCC(=Cc2ccccc2)CC1 [Example 6, (4-Benzylidene-piperidine-1-yl)-(6-hydroxy-1H-indol-2-yl)-methanone]
inhibition at 15 µM [1]: < 30% | ED50 [3, 7]: 0.43 mg/kg | LMA % increase ([5]; dose 3.75 mg/kg oral): 0% | LMA % increase ([5]; dose 7.5 mg/kg oral): 55% | LMA % increase ([5]; dose 15 mg/kg oral): 69% | IC50 [2, 6]: 50 to 500 nM

Cc1ccc(CC2(O)CCN(CCOc3ccc(O)cc3)CC2)cc1 [Co-101244, 1-[2-(4-hydroxyphenoxy)ethyl]-4-hydroxy-4-(4-methylbenzyl)piperidine]
inhibition at 10 µM [1]: -8.7%

Cc1ccc(C=C2CCN(C(=O)c3nc4ccc(O)cc4[nH]3)CC2)cc1 [Example 2, (6-Hydroxy-1H-benzoimidazol-2-yl)-[4-(4-methyl-benzylidene)-piperidine-1-yl]-methanone]
inhibition at 15 µM [1]: 34% | IC50 [2, 6]: < 50 nM

(benzyl-piperidin-1-yl)-(6-hydroxy-1H-benzoimidazol-2-yl)-methanone [“A”]
Formalin ED50 [3, 7]: 1.6 mg/kg | LMA % increase ([5]; dose 1.875 mg/kg oral): 80% | locomotor stimulation relative to analgesic dose range (in words) [5]: no separation between the doses causing analgesia and those stimulating locomotor activity

C[C@@H]([C@@H](O)c1ccc(O)cc1)N1CCC(O)(c2ccccc2)CC1 [CP-101,606]
NR1-3/NR2A % inhibition at 10 μM [1]: 2.5% | Formalin ED50 [3, 7]: >20* mg/kg | effect on locomotor activity (in words) [4]: no such effect was observed | dose up to which locomotor stimulating effect is lacking ([4]; i.p.): ≤ 100 mg/kg | dose up to which locomotor stimulating effect is lacking ([4]; s.c.): up to 56 mg/kg

C[C@]12N[C@H](Cc3ccccc31)c1ccccc12 [MK-801, (+)-5-Methyl-10,11-dihydro-5H-dibenzo[a,d]cyclohepten-5,10-imine]
ED50 ([3]; po): 0.15 mg/kg | LMA % increase ([5]; dose 0.1 mg/kg oral): 114% | LMA % increase ([5]; dose 0.3 mg/kg oral): 217%

O=C(c1nc2ccc(O)cc2[nH]1)N1CCC(=Cc2ccc(Cl)cc2)CC1 [Example 4, [4-(4-Chloro-benzylidene)-piperidine-1-yl]-(6-hydroxy-1H-benzoimidazol-2-yl)-methanone]
inhibition at 15 µM [1]: < 30% | IC50 [2, 6]: < 50 nM

O=c1[nH]c2ccc([S+]([O-])CCN3CCC(Cc4ccc(F)cc4)CC3)cc2o1 (stereo not drawn) [CI-1041, 6-{2-[4-(4-fluoro-benzyl)-piperidin-1-yl]-ethanesulfinyl}-3H benzooazol-2-one]
inhibition at 10 µM [1]: 21% | ED50 [3, 7]: 2.4 mg/kg | LMA % increase ([5]; dose 10 mg/kg oral): 137% | locomotor stimulation relative to analgesic dose range (in words) [5]: no separation between the doses causing analgesia and those stimulating locomotor activity

O=C(c1nc2ccc(O)cc2[nH]1)N1CCC(=Cc2ccc(F)cc2)CC1 [Example 3, [4-(4-Fluoro-benzylidene)-piperidine-1-yl]-(6-hydroxy-1H-benzoimidazol-2-yl)-methanone]
inhibition at 15 µM [1]: < 30% | IC50 [2, 6]: < 50 nM

O=C(c1cc2ccc(O)cc2[nH]1)N1CCC(Cc2ccccc2)CC1 [“B”, (4-benzyl-piperidin-1-yl)-(6-hydroxy-1H-indol-2-yl)-methanone]
ED50 [3, 7]: 1.7 mg/kg | LMA % increase ([5]; dose 1.875 mg/kg oral): 90% | locomotor stimulation relative to analgesic dose range (in words) [5]: no separation between the doses causing analgesia and those stimulating locomotor activity
